As usually defined, the inhibition in vivo is the change of the read-out against control, counted positive when it falls.

The test system of this experiment is Sprague-Dawley rats. Kind of experiment: Glucose lowering following oral administration to the fasted, normal rat. It is filed as in vivo. The note with it: maximum lowering relative to saline controls, 10 mg/kg oral, 18-h fasted rats. On the procedure:
Compounds were administered by oral gavage to 18-h fasted, Sprague-Dawley rats (250-300 g, n=3/4/group) at a dose of 10 mg/kg. Phosphonic acids (active moieties) were prepared in deionized water, and the solution adjusted to neutrality with sodium hydroxide. Prodrugs were dissolved in polyethylene glycol (mw 400). Blood samples were taken via tail vein nick immediately prior to dosing and at 1 h intervals thereafter. Blood glucose was analyzed by means of a HemoCue glucose analyzer (HemoCue Inc., Mission Viejo, Calif.). The table below indicates the maximum % glucose lowering achieved relative to control animals dosed with saline.
In the case of `CCOC(=O)SCCOP(=O)(OCCSC(=O)OCC)c1ccc(-c2nc(N)sc2C(=O)C(C)(C)C)o1` [Compound 6.6], testing at 10 mg/kg gave an inhibition in vivo of 4%.

Compound `CCOC(=O)COP(=O)(N[C@@H](C)C(=O)OCC)c1ccc(-c2nc(N)sc2C(=O)C(C)(C)C)o1` (stereo partly drawn) [Compound 5.8, 2-amino-5-(2,2-dimethylpropionyl)-4-{2-[5-(N-((S)-1-ethoxy-carbonyl)ethyl)-O-(ethoxycarbonylmethyl)monophosphonamido]furanyl}-thiazole] registered an inhibition in vivo at 10 mg/kg of 10%.

Turning to `CCOC(=O)[C@H](C)NP(=O)(N[C@@H](C)C(=O)OCC)c1ccc(-c2nc(N)sc2C(=O)C(C)(C)CC)o1` [Compound 2.10, 2-amino-5-(2,2-dimethylbutyryl)-4-{[5-(N,N′-((S)-1-ethoxycarbonyl)-ethyl)phosphonamido]furan-2-yl}thiazole], 10 mg/kg produced 12% inhibition in vivo.

The compound `CCOC(=O)[C@H](C)NP(=O)(N[C@@H](C)C(=O)OCC)c1ccc(-c2nc(N)sc2C(=O)c2ccccc2C)o1` [Compound 2.14, 2-amino-5-(2-methylbenzoyl)-4-{[5-(N,N′-((S)-1-ethyl-oxycarbonyl)ethyl)-phosphonamido]furan-2-yl}thiazole] showed an inhibition in vivo at 10 mg/kg of 20%.

The compound `CCOC(=O)C(C)(C)NP(=O)(NC(C)(C)C(=O)OCC)c1ccc(-c2nc(N)sc2C(=O)c2cccc(F)c2)o1` [Compound 2.27] showed an inhibition in vivo at 10 mg/kg of 6%.

Take `CC(C)(C)C(=O)OCOP(=O)(OCOC(=O)C(C)(C)C)c1ccc(-c2nc(N)sc2C(=O)C(C)(C)C)o1` [Compound 8.4, 2-amino-5-(2,2-dimethylpropionyl)-4-{[5-(O,O′-bis(pivalyloxymethyl)phosphono)]furan-2-yl}thiazole]: the inhibition in vivo at 10 mg/kg came out at 6%.

`CC(C)(C)C(=O)c1sc(N)nc1-c1ccc(P(=O)(OCCSC(=O)c2ccccc2)OCCSC(=O)c2ccccc2)o1` [Compound 6.5]: the inhibition in vivo at 10 mg/kg was 9%.

Consider `CCOC(=O)COP(=O)(NC(C)(C)C(=O)OC(C)C)c1ccc(-c2nc(N)sc2C(=O)C(C)(C)C)o1` (centres unmarked) [Compound 5.7], for which the inhibition in vivo at 10 mg/kg was 25%.

Take `CC(C)(C)C(=O)c1sc(N)nc1-c1ccc(P2(=O)OCC[C@@H](c3cccc(Cl)c3)O2)o1` (stereo partly drawn) [Compound 7.1, (cis)-2-amino-5-(2,2-dimethylpropionyl)-4-{[5-(4-(3-chlorophenyl)-2-oxo-1,3,2-phosphorinan-2-yl)]furan-2-yl}thiazole]: the inhibition in vivo at 10 mg/kg was determined as 70%.

For `CCOC(=O)C(C)(C)NP(=O)(NC(C)(C)C(=O)OCC)c1ccc(-c2nc(N)sc2C(=O)C(C)(C)CC)o1` [Compound 2.9], the inhibition in vivo at 10 mg/kg came out at 24%.

The compound `Cc1ccc(C(=O)c2sc(N)nc2-c2ccc(P(=O)(NC(C)(C)C(=O)OC(C)C)NC(C)(C)C(=O)OC(C)C)o2)cc1` [Compound 2.20] gave an inhibition in vivo at 10 mg/kg of 6%.

Regarding `CCOC(=O)C(C)(C)NP(=O)(NC(C)(C)C(=O)OCC)c1ccc(-c2nc(N)sc2C(=O)c2ccc(C)cc2)o1` [Compound 2.17], the inhibition in vivo at 10 mg/kg was found to be 10%.

As to `CCC(CC)C(=O)c1sc(N)nc1-c1ccc(P(=O)(OCCSC(=O)c2ccccc2)OCCSC(=O)c2ccccc2)o1` [Compound 6.2], the inhibition in vivo at 10 mg/kg was 3%.

In turn, `CCC(C)(C)C(=O)c1sc(N)nc1-c1ccc(P(=O)(NC(C)(C)C(=O)OC(C)C)NC(C)(C)C(=O)OC(C)C)o1` [Compound 2.8] yielded an inhibition in vivo at 10 mg/kg of 14%.

As for `CCOC(=O)[C@H](C)OP(=O)(NC(C)(C)C(=O)OCC)c1ccc(-c2nc(N)sc2C(=O)C(C)(C)C)o1` (some centres unmarked) [Compound 5.9], testing at 10 mg/kg gave an inhibition in vivo of 10%.

With `CCOC(=O)C(C)(C)NP(=O)(NC(C)(C)C(=O)OCC)c1ccc(-c2nc(N)sc2C(=O)c2ccccc2C)o1` [Compound 2.15], at 10 mg/kg the inhibition in vivo was 8%.

Regarding `CCOC(=O)[C@H](C)NP(=O)(Oc1ccc2c(c1)OCO2)c1ccc(-c2nc(N)sc2C(=O)C(CC)CC)o1` (some centres unmarked) [Compound 5.1], the inhibition in vivo at 10 mg/kg worked out at 8%.

These data come from patent US20080070868A1, “Novel Thiazole Inhibitors of Fructose 1,6-bisphosphatase” (Metabasis Therapeutics, Inc., priority 2004, published 2008).
